Measurements from patent publication US10988474B2, “Compounds acting at multiple prostaglandin receptors giving a general anti-inflammatory response” (ALLERGAN, INC., priority 2011, dated 2021).

Experiments:
[1] = target: T1, human prostanoid DP1 receptor (Homo sapiens, UniProt Q13258); experiment: FLIPR Ca2+ signaling PG antagonist assay, DP1 stable cell line; assay type: cell-based; conditions: HEK-293 EBNA cells, human recombinant DP1 with chimeric Gqs, standard agonist BW 245C; for Kb: read-out: DP (Kb, PG antagonist activity)
T1 construct: expressed in transfected cells
T1 sequence (Q13258 1-359): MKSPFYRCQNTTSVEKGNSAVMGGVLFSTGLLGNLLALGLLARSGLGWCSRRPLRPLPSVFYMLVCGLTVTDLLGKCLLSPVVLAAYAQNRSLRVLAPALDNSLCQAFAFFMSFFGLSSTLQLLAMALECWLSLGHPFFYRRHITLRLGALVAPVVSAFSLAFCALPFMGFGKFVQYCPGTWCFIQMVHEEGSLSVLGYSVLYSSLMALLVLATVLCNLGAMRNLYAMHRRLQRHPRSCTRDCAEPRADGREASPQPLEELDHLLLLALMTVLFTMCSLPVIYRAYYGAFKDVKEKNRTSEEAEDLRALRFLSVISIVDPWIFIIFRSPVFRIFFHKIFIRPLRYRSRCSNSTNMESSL
How it was run: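 Stable HEK-293 EBNA lines (DP1 with chimeric Gqs, EP3 with Gqi, EP1 and FP without exogenous G protein) were Fluo-4AM-loaded and pretreated 4.5 min at 37 °C with compound (0.1–30 μM). Agonist (BW 245C for DP1, PGE2 for EP1/EP3, 17-phenyl-PGF2α for FP) was then added at 10^−11–10^−5 M. Peak Ca2+ fluorescence was taken relative to agonist at 10^−6 M.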

[2] = target: T2, human prostanoid EP1 receptor (Homo sapiens, UniProt P34995); experiment: FLIPR Ca2+ signaling PG antagonist assay, EP1 stable cell line; assay type: cell-based; conditions: HEK-293 EBNA cells, human recombinant EP1, no exogenous G-protein; standard agonist PGE2
T2 construct: expressed in transfected cells
T2 sequence (P34995 1-402): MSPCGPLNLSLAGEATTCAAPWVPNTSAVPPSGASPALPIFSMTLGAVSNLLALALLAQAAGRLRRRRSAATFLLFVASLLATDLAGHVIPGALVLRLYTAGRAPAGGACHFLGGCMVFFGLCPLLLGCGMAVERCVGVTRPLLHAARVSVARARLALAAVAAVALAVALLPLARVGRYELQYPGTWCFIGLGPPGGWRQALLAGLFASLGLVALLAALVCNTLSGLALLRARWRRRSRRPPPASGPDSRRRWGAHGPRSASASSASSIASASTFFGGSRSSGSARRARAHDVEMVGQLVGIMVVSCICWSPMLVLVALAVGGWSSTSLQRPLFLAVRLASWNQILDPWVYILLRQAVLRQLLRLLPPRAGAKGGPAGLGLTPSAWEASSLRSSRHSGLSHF
Experimental: The above compounds were tested for PG antagonist activity as follows using human recombinant prostanoid receptor (DP1, EP1-4, FP, IP and TP) stable cell lines: In order to measure the response of Gs and Gi coupled prostanoid receptors as a Ca^2+ signal, chimeric G protein cDNAs were used. Stable cell lines over-expressing human prostanoid DP1, EP1-4, FP, IP, and TP receptors were established as follows:
Briefly, human prostanoid DP1, EP2, and EP4 receptor cDNAs were co-transfected with chimeric Gqs cDNA containing a haemagglutanin (HA) epitope; human prostanoid EP3 receptors were co-transfected with chimeric Gqi-HA; human EP1, FP, IP, and TP receptor cDNAs were expressed with no exogenous G-proteins. Gqs and Gqi chimeric cDNAs (Molecular Devices, Sunnyvale, Calif., U.S.A.), as well as cDNAs of prostanoid receptors, were cloned into a pCEP4 vector with a hygromycin B selection marker. Transfection into HEK-293 EBNA (Epstein-Barr virus nuclear antigen) cells was achieved by the FuGENE 6 transfection Reagent (Roche Applied Science, Indianapolis, Ind., USA). Stable transfectants were selected according to hygromycin resistance. Because Gqs and Gqi contained an HA epitope, G-protein expression was detected by Western blotting analysis using anti-mouse HA monoclonal antibody and horseradish peroxidase (HRP)-conjugated secondary antibody, while functional expression of prostanoid receptors was detected by FLIPR screening (Matias et al., 2004). These stable cell lines were validated using previously published antagonists at 10 μM against serial dilutions of standard agonists by FLIPR functional assays for Ca^2+ Signaling (as described below).
Ca^2+ signaling studies were performed using a FLIPR TETRA system (Molecular Devices, Sunnyvale, Calif., USA) in the 384-format. This is a high-throughput instrument for cell-based assays to monitor Ca^2+ signaling associated with GPCRs and ion channels. Cells were seeded at a density of 5×10^4 cells/well in BioCoat poly-D-lysine coated, black wall, clear bottom 384-well plates (BD Biosciences, Franklin lakes, NJ, USA) and allowed to attach overnight in an incubator at 37° C. The cells were then washed twice with HBSS-HEPES buffer (Hanks' balanced salt solution without bicarbonate and phenol red, 20 mM HEPES, pH 7.4) using an ELx405 Select CW Microplate Washer (BioTek, Winooski, Vt., USA). After 60 min of dye-loading in the dark using the Ca^2+-sensitive dye Fluo-4AM (Invitrogen, Carlsbad, Calif., USA), at a final concentration of 2×10^−6M, the plates were washed 4 times with HBSS-HEPES buffer to remove excess dye and leaving 50 μl of buffer in each well. The plates were then placed in the FLIPR TETRA instrument and allowed to equilibrate at 37° C. Compounds were added in a 25 μl volume to each well to give final concentrations of 0.1 μM, 0.3 μM, 1 μM, 3 μM, 10 μM, and 30 μM; or 0.067 μM, 0.1 μM, 0.2 μM, 0.3 μM, 0.67 μM, and 1 μM for cells over-expressing TP receptors. After 4.5 minutes, a 7-point serial dilution of the standard agonist for the corresponding receptor, in a 25 μl volume was injected at the final concentrations from 10^−11M to 10^−5M in 10-fold serial dilution increments for cells expressing human recombinant DP1, EP1, EP2, EP3, EP4, FP, and IP receptors. The dose range for the standard agonist for human recombinant TP receptors was from 10^−12M to 10^−6M. HBSS-HEPES buffer was used as the negative control for the standard agonists. Cells were excited with LED (light emitting diode) excitation at 470-495 nm and emission was measured through an emission filter at 515-575 nm. Assay plates were read for 3.5 minutes using the FLIPR^TETRA. The peak increase in fluorescence intensity was recorded for each well. On each plate, negative controls, dose response of positive controls, and co-treatments of antagonist-agonist for each dose were in triplicates. Standard agonists were as follows: DP=BW 245C, EP1-EP4=PGE2, FP=17-phenyl-PGF2α, IP=Cicaprost, and TP=U-46619. […]

DP (Kb, PG antagonist activity) [1]	Structure (SMILES)	Kb [1]	Kb [2]
–	Cc1ccc(OCC(C)C)c(Cn2ncc3cc(C(=O)O)ccc32)n1 [Example 50, 1-(3-Isobutoxy-6-Methyl-Pyridin-2-ylmethyl)-1H-Indazole-5-Carboxylic Acid]	2400 nM	90 nM
–	CC(C)(C)COc1ccc(Br)cc1Cn1ncc2cc(C(=O)O)ccc21 [Example 52, 1-[5-Bromo-2-(2,2-Dimethyl-Propoxy)-Benzyl]-1H-Indazole-5-Carboxylic Acid]	2300 nM	24 nM
–	CCC(CC)COc1ccc(Br)cc1Cn1nc(C)c2cc(C(=O)O)ccc21 [Example 27, 1-[5-Bromo-2-(2-Ethyl-Butoxy)-Benzyl]-3-Methyl-1H-Indazole-5-Carboxylic Acid]	1600 nM	110 nM
–	CC(C)COc1ccc(OCC(F)F)cc1Cn1ncc2cc(C(=O)O)ccc21 [Example 55, 1-[5-(2,2-Difluoro-Ethoxy)-2-Isobutoxy-Benzyl]-1H-Indazole-5-Carboxylic Acid]	1200 nM	40 nM
–	CC(C)COc1ccc(Br)cc1Cn1ncc2cc(C(=O)O)ccc21 [Example 4]	700 nM	6 nM
–	CCC(CC)COc1ccc(Br)cc1Cn1c(C)cc2cc(C(=O)O)ccc21 [Example 68, 1-[5-Bromo-2-(2-Ethyl-Butoxy)-Benzyl]-2-Methyl-1H-Indole-5-Carboxylic Acid]	≥ 10000 nM	≥ 10000 nM
–	CC(C)COc1ccc(OC(F)(F)F)cc1Cn1ccc2cc(C(=O)O)ccc21 [Example 71, 1-(2-Isobutoxy-5-Trifluoromethoxy-Benzyl)-1H-Indole-5-Carboxylic Acid]	≥ 10000 nM	100 nM
–	CC(C)COc1ccc(OC(F)(F)F)cc1Cn1ccc2cc(C(=O)O)cnc21 [Example 74, 1-(2-Isobutoxy-5-Trifluoromethoxy-Benzyl)-1H-Pyrrolo[2,3-B]Pyridine-5-Carboxylic Acid]	290 nM	60 nM
–	CCC(CC)Oc1ccc(Br)cc1Cn1ncc2cc(C(=O)O)ccc21 [Example 51, 1-[5-Bromo-2-(1-Ethyl-Propoxy)-Benzyl]-1H-Indazole-5-Carboxylic Acid]	600 nM	70 nM
–	CC(C)COc1ccc(C(F)(F)F)cc1Cn1ncc2cc(C(=O)O)ccc21 [Example 18]	1400 nM	40 nM
–	CC(C)COc1ccc(Cl)cc1Cn1ncc2c(C(=O)O)cccc21 [Example 36, 1-(5-Chloro-2-Isobutoxy-Benzyl)-1H-Indazole-4-Carboxylic Acid]	1100 nM	60 nM
–	O=C(O)c1ccc2c(cnn2Cc2cc(Cl)ccc2OCC2CC2)c1 [Example 11, 1-(5-Chloro-2-Cyclopropylmethoxy-Benzyl)-1H-Indazole-5-Carboxylic Acid]	900 nM	120 nM
–	O=C(O)c1ccc2c(cnn2Cc2cc(C(F)(F)F)ccc2OCC2CCCC2)c1 [Example 33, 1-(2-Cyclopentylmethoxy-5-Trifluoromethyl-Benzyl)-1H-Indazole-5-Carboxylic Acid]	350 nM	70 nM
–	O=C(O)c1ccc2c(cnn2Cc2cc(Br)ccc2OCc2ccccc2)c1 [Example 12, 1-(2-Benzyloxy-5-Bromo-Benzyl)-1H-Indazole-5-Carboxylic Acid]	1600 nM	360 nM
–	CC(C)COc1ccc(Br)cc1Cn1ncc2c(C(=O)O)cccc21 [Example 7, 1-(5-Bromo-2-Isobutoxy-Benzyl)-1H-Indazole-4-Carboxylic Acid]	1900 nM	45 nM
–	O=C(O)c1cccc2nn(Cc3cc(Cl)ccc3OCC3CC3)cc12 [Example 35, 2-(5-Chloro-2-Cyclopropylmethoxy-Benzyl)-2H-Indazole-4-Carboxylic Acid]	1900 nM	4200 nM
–	CC1(COc2ccc(Br)cc2Cn2ncc3cc(C(=O)O)ccc32)CC1 [Example 19]	1200 nM	12 nM
–	O=C(O)c1ccc2c(cnn2Cc2cc(Br)ccc2OCc2ccc(Cl)cc2)c1 [Example 13, 1-[5-Bromo-2-(4-Chloro-Benzyloxy)-Benzyl]-1H-Indazole-5-Carboxylic Acid]	1200 nM	50 nM
–	CC(C)COc1ccc(O)cc1Cn1ncc2cc(C(=O)O)ccc21 [Example 54]	9900 nM	1300 nM
–	CCC(CC)COc1ccc(Cl)cc1Cn1ncc2c(C(=O)O)cccc21 [Example 38, 1-[5-Chloro-2-(2-Ethyl-Butoxy)-Benzyl]-1H-Indazole-4-Carboxylic Acid]	630 nM	70 nM
PAg	O=C(O)c1ccc2cnn(Cc3cc(Br)ccc3OCC3CCCC3)c2c1 [Example 44, 1-(5-Bromo-2-Cyclopentylmethoxy-Benzyl)-1H-Indazole-6-Carboxylic Acid]	–	240 nM
–	CC(C)COc1ccc(Cl)cc1Cn1ncc2cc(C(=O)O)cnc21 [Example 57, 1-(5-Chloro-2-Isobutoxy-Benzyl)-1H-Pyrazolo[3,4-B]Pyridine-5-Carboxylic Acid]	5500 nM	27 nM
–	CC(C)COc1ccc(Br)cc1Cn1ccc2cc(C(=O)O)ccc21 [Example 67, 1-(5-Bromo-2-Isobutoxy-Benzyl)-1H-Indole-5-Carboxylic Acid]	≥ 10000 nM	60 nM
